Test results: US20230089267A1, “Compositions and Methods For Reducing Immune Intolerance and Treating Autoimmune Disorders” (Lapix Therapeutics, Inc., priority 2021, published 2023)

Columns and labels:
[1] = test system: MOG35-55-induced murine EAE model; assay: Escalation treatment paradigm in MOG35-55-induced murine EAE model (Example 8); type: in vivo, mice
Description: Compound 2 (0.03 mg/ml) was formulated with hydroxypropyl beta cyclodextrin (HPCD) 1:80 (Compound 2:HPCD) and stored at 4° C. until use. Natalizumab, an anti-α4β1 integrin antibody is a monoclonal antibody that is approved by U.S. Food and Drug Administration (FDA) for the treatment of relapsing forms of MS. […] Natalizumab was diluted in PBS to a final concentration of 15 mg/ml before dosing. DMF is a disease-modifying therapy (DMT) recommended for the treatment of active relapsing multiple sclerosis. DMF (1 g) was dissolved in 50 ml of 4% solution of METHOCEL© to give a 20 mg/ml solution of DMF. The solution was stored at 4° C. until use.
Experimental autoimmune (allergic) encephalomyelitis (EAE) is considered to be the best non-clinical model of multiple sclerosis (MS). Over 6,000 papers have been published in scientific journals on this model. EAE is characterized by immune responses against CNS tissue and can be induced in animals by immunizing them against proteins of the CNS. In the active EAE model, mice are immunized with MOG35-55 peptide emulsified in Complete Freund's Adjuvant (CFA) by subcutaneous injection at the tail base (100 μg of […] per mouse) under anesthesia. On the day of injection (Day 0) and two days later (Day 2), mice receive an intraperitoneal injection of pertussis toxin (PT) in PBS at 200 ng/mouse/dose (0.1 mL). Symptoms typically develop in mice 9-14 days after immunization (Day 0). Daily observation and scoring of mice start on Day 7 and continue until the end of the study. Table 5 (see Example 4 above) details the expected clinical symptoms and the scoring criteria used in this study.
This study was designed to evaluate the early sustained use of Compound 2 versus DMF in a treatment escalation paradigm (sustained use cohort), and Compound 2 versus natalizumab after DMF failure (escalation cohort). All animals in the escalation cohorts received 14 doses of DMF or Compound 2, or 3 doses of natalizumab, as per group assignment.
Probability of disease control: Disease control was defined as a clinical score of less than 2.5. Animals in the different treatment groups were monitored after the 3:1:1 randomization. A score of 2.5 was recorded as an event and analyzed by survival analysis in GraphPad Prism 9. Animals not reaching a clinical score of 2.5 by day 14, the end of the treatment period, were assigned a score of zero for the survival analysis.
Efficacy of Compound 2 versus DMF in early sustained use: Animals in the DMF group that reached a score of 2.5 were randomized 1:1:1, as per FIG. 5A. Animals randomized to continue DMF treatment were given the remainder of the 14 DMF doses. Animals from the first randomization that were treated with Compound 2 after disease onset continued treatment for a total of 14 doses. After the 14th dose, treatment was stopped and clinical score and overall survival were monitored.
Efficacy of Compound 2 versus natalizumab in a treatment escalation cohort: Animals in the DMF group that reached a score of 2.5 were randomized 1:1:1, as per FIG. 5A. Animals randomized to natalizumab were dosed 100 μg/mouse IV every 3 days for 3 total doses starting the same day a score of 2.5 was recorded. Animals randomized to Compound 2 were dosed with 3 μg/mouse SC QD for 14 total doses starting on the same day a score of 2.5 was recorded.
Overall survival: Death due to the disease was monitored in the early sustained use cohort as well as the escalation cohort. Death by disease (clinical score of 5) was recorded as an event “1,” death due to ulceration or for ex vivo analysis was recorded as “0.” Animals surviving until the end of the study were recorded “0” on day 27. Survival analysis was done in GraphPad Prism 9.

CD4+/Foxp3+ T-cells = assay: Foxp3 induction in human total PBMCs or sorted T-cells; type: cell-based; conditions: 3 ng/ml; for percentage of CD4+/Foxp3+ T-cells: five days
Description: 2×10^5 Total PBMCs or sorted T-cells (CD3^+) were cultured in 96-well plates in the presence of ascending doses of Compound 2 ranging from 0 to 3 ng/ml for five days. On day 5, cells were washed and stained for CD3 and CD4 for 30 minutes on ice, then cells were washed with PBS and stained with viability dye to exclude dead cells. Stained cells were fixed/permeabilized and further stained for Foxp3. Finally, cells were washed and fixed for acquisition by Attune NXT flow cytometer. Data were analyzed by FlowJov10.

[2] = test system: Foxp3+/CD4+ T-cells of MS patients; assay: PBMCs of multiple sclerosis patients treated ex vivo; type: cell-based, human; conditions: up to 2.5 μM, five days, six subjects
Description: Total human PBMCs were isolated from six subjects with confirmed diagnosis of MS. On Day 0, 2×10^5 cells/well were incubated in a 96 round bottomed-well plate alone or with up to 2.5 μM Compound 2 for five days. On Day 5, cells were collected, washed and stained for surface staining (CD3, CD4), then viability dye to exclude dead cells. Intranuclear staining was performed after cell fixation and permeabilization for transcription factor FoxP3. Cells were washed and fixed for acquisition by Attune NXT flow cytometer. Data were analyzed by FlowJov10.

[3] = test system: MOG35-55-induced murine EAE model; assay: MOG35-55-induced murine EAE model versus standards of care (Example 4); type: in vivo, mice
Description: Experimental autoimmune (allergic) encephalomyelitis (EAE) is considered the best non-clinical model of multiple sclerosis (MS). EAE is characterized by immune responses against CNS tissue and can be induced in animals by immunizing them against proteins of the CNS. In the active EAE model, mice are immunized with MOG35-55 peptide emulsified in Complete Freund's Adjuvant (CFA) by subcutaneous injection at the tail base (0.1 mL of emulsion/mouse) under anesthesia. On the day of injection (Day 0) and 2 days later, mice receive an intraperitoneal injection of Pertussis Toxin (PT) in PBS at 600 ng/mouse/dose (0.1 mL).
Symptoms typically develop in mice 9-14 days after immunization (Day 0). Daily observation and scoring of mice start on Day 9 and continue until the end of the study. Table 5 details the expected clinical symptoms and the scoring criteria used in this study.
To evaluate the therapeutic effects of Compound 2, treatment was initiated after the first clinical symptoms were observed. […] Mice in all groups were monitored and scored daily for clinical symptoms.
At the end of the study, spleens were collected from a representative sample of mice from each group for splenocyte analysis. A single-cell suspension was prepared for cellular phenotyping by flow cytometry. Cells were stained and gated for CD4+ T-cells. Percent FoxP3+/CD4+ T-cells were evaluated by flow cytometry.

[4] = escalation cohort after DMF failure (score 2.5), by day 14 after switching

`N[C@@H](CNC(=O)Cc1ccc(OCc2cccc3ccccc23)cc1)C(=O)O` [Compound 2, (S)-2-Amino-3-(2-(4-(naphthalen-1-ylmethoxy)phenyl)acetamido)propanoic acid] was tested. Which “disease course in early sustained use cohort” value ([1]; 14 doses, followed to end of study) did it give?
The value was “better overall disease control during therapy (day 1 to 14) and after stopping therapy (day 14 to end of study)”.

What about the “mean clinical score after switching from DMF” value [1, 4] of the same molecule?
The value was 2.6 (SD=1.1).

And the “median clinical score after switching from DMF” value [1, 4]?
Its value is 2.5.

What about the “animals that survived until day 27, escalation cohort” value ([1]; switched from DMF) of the same molecule?
The value was 8 out of 9.

And the “overall survival, early sustained use cohort” value ([1]; to day 27)?
The value was “all animals treated with Compound 2 survived until day 27”.

And the “animals that progressed to a disease score of 2.5” value ([1]; treatment from disease onset (score 1), over the entire treatment period (14 days))?
The value was 5 of the 9.

And the “percentage of CD4+/Foxp3+ T-cells” value (CD4+/Foxp3+ T-cells; isolated T-cells (sorted))?
Its value is 2.27%.

And the “percentage of CD4+/Foxp3+ T-cells” value (CD4+/Foxp3+ T-cells; total PBMC)?
Its value is 5.2%.

What about the “increase of percentage of CD4+/Foxp3+ T-cells” value (CD4+/Foxp3+ T-cells; isolated T-cells (sorted)) of the same molecule?
The value was 606%.

And the “increase of percentage of CD4+/Foxp3+ T-cells” value (CD4+/Foxp3+ T-cells; total PBMC)?
The value was 171%.

What about the “MS patients whose T-cells responded (increase in percentage of Foxp3+/CD4+ T-cells)” value [2] of the same molecule?
Its value is “five out of six”.

And the “disease control after switching from anti-alpha4 integrin” value ([3]; 10-μg oral dose following one or two injections of anti-alpha4 integrin)?
Its value is “resulted in disease control after disease onset”.

What about the “control of MS symptoms after disease onset versus glatiramer acetate” value ([3]; all doses and regimens) of the same molecule?
Its value is “more effective than glatiramer acetate”.

And the “control of MS symptoms after disease onset versus anti-alpha4 integrin” value ([3]; daily 10-μg oral dose)?
Its value is “as effective as a full regimen of anti-alpha4 integrin”.

What about the “MS clinical score after disease onset” value ([3]; doses of Table 6, treatment from clinical score 1) of the same molecule?
Its value is “reduced the MS clinical score after disease onset in a dose-dependent manner”.
